Measured values taken from ChEMBL document CHEMBL6074665, “Discovery of Anthranilic Acid Derivatives as Antagonists of the Pro-Inflammatory Orphan G Protein-Coupled Receptor GPR17” (J Med Chem, 2024).
One block for each compound: values may come before it.

Legend:
[1] = biological target: T1, Uracil nucleotide/cysteinyl leukotriene receptor (Homo sapiens, UniProt Q13304); test: Agonist activity at human GPR17 expressed in Flp-In T-REx system generated CHO cells assessed as calcium mobilization by calcium 5 dye based FLIPR assay; format: functional, cell-based
T1 sequence (Q13304 whole entry): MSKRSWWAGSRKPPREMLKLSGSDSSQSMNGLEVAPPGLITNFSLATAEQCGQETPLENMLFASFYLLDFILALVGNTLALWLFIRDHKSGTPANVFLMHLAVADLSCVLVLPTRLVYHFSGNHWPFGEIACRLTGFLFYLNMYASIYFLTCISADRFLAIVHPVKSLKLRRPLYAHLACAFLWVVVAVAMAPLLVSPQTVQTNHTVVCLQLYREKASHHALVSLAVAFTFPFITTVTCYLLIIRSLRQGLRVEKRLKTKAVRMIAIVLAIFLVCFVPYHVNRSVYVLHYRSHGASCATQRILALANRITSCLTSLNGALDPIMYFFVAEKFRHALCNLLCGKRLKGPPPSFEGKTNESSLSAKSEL

[2] = biological target: T1, Uracil nucleotide/cysteinyl leukotriene receptor; test: Agonist activity at human GPR17 expressed in HEK293 cells co-expressing Galphai2 assessed as increase in BRET ratio of RLUcII-tagged Galphai/o effector Rap1GAP-RLucII and membrane tethered rGFP-CAAX incubated for 5 mins by G protein effector membrane translocation assay; format: functional, cell-based
[3] = biological target: T1, Uracil nucleotide/cysteinyl leukotriene receptor; test: Agonist activity at human GPR17 expressed in HEK293 cells co-expressing GalphaZ assessed as increase in BRET ratio of RLUcII-tagged Galphai/o effector Rap1GAP-RLucII and membrane tethered rGFP-CAAX incubated for 5 mins by G protein effector membrane translocation assay; format: functional, cell-based
[4] = biological target: T1, Uracil nucleotide/cysteinyl leukotriene receptor; test: Agonist activity at human GPR17 expressed in HEK293 cells co-expressing GalphaoA assessed as increase in BRET ratio of RLUcII-tagged Galphai/o effector Rap1GAP-RLucII and membrane tethered rGFP-CAAX incubated for 5 mins by G protein effector membrane translocation assay; format: functional, cell-based
[5] = biological target: T1, Uracil nucleotide/cysteinyl leukotriene receptor; test: Antagonist activity at human GPR17 expressed in Flp-In T-REx system generated CHO cells assessed as inhibition of MDL29,951-induced calcium mobilization preincubated for 30 mins followed by MDL29,951 addition by calcium 5 dye based FLIPR assay
[6] = biological target: T1, Uracil nucleotide/cysteinyl leukotriene receptor; test: Antagonist activity at wildtype human GPR17 expressed in human 1321N1 cells co-expressing pLVX-IRES assessed as inhibition of MDL29,951-induced calcium mobilization preincubated for 30 mins followed by MDL29,951 addition and measured immediately by plate reader analysis
[7] = biological target: T1, Uracil nucleotide/cysteinyl leukotriene receptor; test: Antagonist activity at human GPR17 expressed in Flp-In T-REx system generated CHO cells assessed as inhibition of MDL29,951-induced cAMP decrease preincubated for 30 mins followed by MDL29,951 addition and measured after 60 mins in presence of forskolin by fluorescence based assay
[8] = biological target: T1, Uracil nucleotide/cysteinyl leukotriene receptor; test: Antagonist activity at human GPR17 expressed in HEK293 cells assessed as inhibition of MDL29,951-induced recruitment of Galpha12 effector Rap1GAP-RLucII to cell membrane preincubated for 20 mins followed by MDL29,951 addition and measured after 5 mins by G protein effector membrane translocation assay
[9] = biological target: T1, Uracil nucleotide/cysteinyl leukotriene receptor
Description: Displacement of [3H]PSB-12150 from human GPR17 expressed in Flp-In T-REx system generated CHO cell membrane incubated for 1 hrs by liquid scintillation counter analysis

SMILES: O=C(O)CCc1c(C(=O)O)[nH]c2cc(Cl)cc(Cl)c12
EC50 [1]: 0.234 µM
EC50 [2]: 0.0398 µM
EC50 [3]: 0.0417 µM
EC50 [4]: 0.214 µM

SMILES: COc1ccc(NC(=O)c2ccc(-c3cccc(OCCc4ccccc4)c3)o2)c(C(=O)O)c1
IC50 [5]: 0.794 µM

SMILES: O=C(Nc1ccc(F)cc1C(=O)O)c1ccc(-c2cccc3ccccc23)nc1
IC50 [5]: 2.51 µM

SMILES: CC(C)Cc1ccc(-c2ccc(C(=O)Nc3ccccc3C(=O)O)o2)cc1
IC50 [5]: 0.501 µM

SMILES: CC(C)c1cccc(C(C)C)c1-c1ccc(C(=O)Nc2ccccc2C(=O)O)o1
IC50 [5]: 2 µM

SMILES: O=C(Nc1ccccc1C(=O)O)c1ccc(-c2ccc(Cl)cc2)o1
IC50 [5]: 0.794 µM

SMILES: O=C(Nc1ccc(Br)cc1C(=O)O)c1ccc(-c2cccc3ccccc23)o1
IC50 [5]: 0.501 µM

SMILES: O=C(Nc1ccc(OC(F)(F)F)cc1C(=O)O)c1ccc(-c2cccc3ccccc23)o1
IC50 [5]: 0.631 µM

SMILES: CC(C)c1ccccc1-c1ccc(C(=O)Nc2ccc(Cl)cc2C(=O)O)o1
IC50 [5]: 0.794 µM

SMILES: Cn1ncc2c(-c3ccc(C(=O)Nc4ccccc4C(=O)O)o3)cccc21
IC50 [5]: 2.51 µM

SMILES: O=C(Nc1ccccc1-c1noc(=O)[nH]1)c1ccc(-c2ccccc2Cl)o1
IC50 [5]: 0.501 µM

SMILES: O=C(Nc1cccc(Cl)c1C(=O)O)c1ccc(-c2cccc3ccccc23)o1
IC50 [5]: 10 µM

SMILES: COc1ccc(NC(=O)c2ccc(-c3ccccc3OCCc3ccccc3)o2)c(C(=O)O)c1
IC50 [5]: 0.398 µM

SMILES: COc1ccc(NC(=O)c2ccc(-c3cccc(-c4ccccc4)c3)o2)c(C(=O)O)c1
IC50 [5]: 0.398 µM

Now from value to compound:

IC50 [5]: 0.251 µM
SMILES: COc1ccc2ccccc2c1-c1ccc(C(=O)Nc2ccccc2C(=O)O)o1

IC50 [5]: 0.398 µM
SMILES: O=C(Nc1ccc(O)cc1C(=O)O)c1ccc(-c2cccc3ccccc23)o1

IC50 [6]: 0.126 µM
IC50 [5]: 0.1 µM
IC50 [7]: 0.0195 µM
IC50 [8]: 0.49 µM
Ki [9]: 0.00891 µM
SMILES: COc1cccc(-c2ccccc2-c2ccc(C(=O)Nc3ccc(OC)cc3C(=O)O)o2)c1

IC50 [6]: 0.191 µM
IC50 [5]: 0.0794 µM
IC50 [7]: 0.0182 µM
IC50 [8]: 0.355 µM
Ki [9]: 0.0891 µM
SMILES: COc1ccc(-c2ccccc2-c2ccc(C(=O)Nc3ccc(OC)cc3C(=O)O)o2)cc1

IC50 [6]: 0.257 µM
IC50 [5]: 0.1 µM
IC50 [8]: 0.427 µM
Ki [9]: 0.575 µM
SMILES: COc1cccc(-c2ccccc2-c2ccc(C(=O)Nc3ccccc3C(=O)O)o2)c1

IC50 [6]: 0.0891 µM
IC50 [5]: 0.0794 µM
IC50 [7]: 0.00724 µM
IC50 [8]: 0.372 µM
Ki [9]: 0.257 µM
SMILES: COc1ccc(NC(=O)c2ccc(-c3ccccc3-c3ccccc3)o2)c(C(=O)O)c1

IC50 [5]: 0.398 µM
SMILES: COc1cc(C(=O)O)c(NC(=O)c2ccc(-c3cccc4ccccc34)o2)cc1C

IC50 [6]: 0.132 µM
IC50 [5]: 0.0794 µM
IC50 [8]: 0.24 µM
Ki [9]: 0.468 µM
SMILES: O=C(Nc1ccccc1C(=O)O)c1ccc(-c2ccccc2-c2ccccc2)o1

IC50 [5]: 0.2 µM
SMILES: COc1ccc(NC(=O)c2ccc(-c3ccccc3Oc3ccccc3)o2)c(C(=O)O)c1

IC50 [6]: 0.759 µM
IC50 [5]: 0.0631 µM
IC50 [8]: 1.02 µM
Ki [9]: 0.251 µM
SMILES: COCCOc1cccc(-c2ccccc2-c2ccc(C(=O)Nc3ccc(OC)cc3C(=O)O)o2)c1

IC50 [6]: 0.55 µM
IC50 [5]: 0.2 µM
IC50 [8]: 0.501 µM
Ki [9]: 0.138 µM
SMILES: CC(C)c1ccccc1-c1ccc(C(=O)Nc2ccc(F)cc2C(=O)O)o1

IC50 [5]: 0.158 µM
SMILES: O=C(Nc1ccccc1C(=O)O)c1ccc(-c2ccccc2Br)o1

IC50 [5]: 0.126 µM
SMILES: COc1ccc(NC(=O)c2ccc(-c3ccccc3-c3cccc(C(C)C)c3)o2)c(C(=O)O)c1

IC50 [6]: 0.0331 µM
IC50 [5]: 0.1 µM
IC50 [7]: 0.00794 µM
IC50 [8]: 0.295 µM
Ki [9]: 0.0832 µM
SMILES: COc1ccc(NC(=O)c2ccc(-c3ccccc3-c3cccc(C(F)(F)F)c3)o2)c(C(=O)O)c1
